Measurements from ChEMBL document CHEMBL4270577, “Synthesis, anticancer activity and molecular modeling studies of 1,2,4-triazole derivatives as EGFR inhibitors” (Eur J Med Chem, 2018).

What was measured:
Tubulin (Homo sapiens) = Tubulin (Homo sapiens) (UniProt P68371+Q9H4B7+P0DPH7+P68366+Q13509+Q71U36+P04350+Q3ZCM7+P07437+P68363+Q9BQE3+Q6PEY2+Q13885+Q9BVA1+Q9BUF5); assay: Inhibition of tubulin (unknown origin) polymerization assessed as polymerized tubulin level at 5 to 25 uM by fluorescence assay; format: protein-complex assay
SF-268 = assay: Growth inhibition of human SF268 cells at 10 uM incubated for 48 hrs by sulforhodamine B assay relative to control; format: functional; details: SF-268, 48 h, read-out: GI
Malme-3M = assay: Growth inhibition of human MALME-3M cells at 10 uM incubated for 48 hrs by sulforhodamine B assay relative to control; format: functional; details: read-out: GI
UACC-257 = assay: Growth inhibition of human UACC257 cells at 10 uM incubated for 48 hrs by sulforhodamine B assay relative to control; format: functional; details: UACC-257, 48 h, read-out: GI
SR = assay: Growth inhibition of human SR cells at 10 uM incubated for 48 hrs by sulforhodamine B assay relative to control; format: functional; details: read-out: GI
PC-3 = assay: Growth inhibition of human PC3 cells at 10 uM incubated for 48 hrs by sulforhodamine B assay relative to control; format: functional; details: PC-3, 48 h, read-out: GI
TK-10 = assay: Growth inhibition of human TK10 cells at 10 uM incubated for 48 hrs by sulforhodamine B assay relative to control; format: functional; details: TK-10, 48 h, read-out: GI
HOP-92 = assay: Growth inhibition of human HOP92 cells at 10 uM incubated for 48 hrs by sulforhodamine B assay relative to control; format: functional; details: HOP-92, 48 h, read-out: GI
A549 [1] = assay: Growth inhibition of human A549/ATCC cells at 10 uM incubated for 48 hrs by sulforhodamine B assay relative to control; format: functional; details: A549, 48 h, read-out: GI
SF-539 = assay: Growth inhibition of human SF539 cells at 10 uM incubated for 48 hrs by sulforhodamine B assay relative to control; format: functional; details: SF-539, 48 h, read-out: GI
T47D = assay: Growth inhibition of human T47D cells at 10 uM incubated for 48 hrs by sulforhodamine B assay relative to control; format: functional; details: read-out: GI
SW-620 = assay: Growth inhibition of human SW620 cells at 10 uM incubated for 48 hrs by sulforhodamine B assay relative to control; format: functional; details: SW-620, 48 h, read-out: GI
U-251 = assay: Growth inhibition of human U251 cells at 10 uM incubated for 48 hrs by sulforhodamine B assay relative to control; format: functional; details: U-251, 48 h, read-out: GI
PANC-1 = assay: Antiproliferative activity against human PANC1 cells after 48 hrs by propidium iodide staining-based fluorometric analysis; format: functional, cell-based; details: PANC-1, 48 h
RPMI-8226 = assay: Growth inhibition of human RPMI8226 cells at 10 uM incubated for 48 hrs by sulforhodamine B assay relative to control; format: functional; details: RPMI-8226, 48 h, read-out: GI
A498 = assay: Growth inhibition of human A498 cells at 10 uM incubated for 48 hrs by sulforhodamine B assay relative to control; format: functional; details: A498, 48 h, read-out: GI
HT-29 [2] = assay: Antiproliferative activity against human HT-29 cells after 48 hrs by propidium iodide staining-based fluorometric analysis; format: functional, cell-based; details: HT-29, 48 h
HOP-62 = assay: Growth inhibition of human HOP62 cells at 10 uM incubated for 48 hrs by sulforhodamine B assay relative to control; format: functional; details: HOP-62, 48 h, read-out: GI
UO-31 = assay: Growth inhibition of human UO31 cells at 10 uM incubated for 48 hrs by sulforhodamine B assay relative to control; format: functional; details: UO-31, 48 h, read-out: GI
HL-60(TB) = assay: Growth inhibition of human HL-60(TB) cells at 10 uM incubated for 48 hrs by sulforhodamine B assay relative to control; format: functional; details: HL-60, 48 h, read-out: GI
NCI-H322M = assay: Growth inhibition of human NCI-H322M cells at 10 uM incubated for 48 hrs by sulforhodamine B assay relative to control; format: functional; details: read-out: GI
UACC-62 = assay: Growth inhibition of human UACC62 cells at 10 uM incubated for 48 hrs by sulforhodamine B assay relative to control; format: functional; details: UACC-62, 48 h, read-out: GI
SN12C = assay: Growth inhibition of human SN12C cells at 10 uM incubated for 48 hrs by sulforhodamine B assay relative to control; format: functional; details: read-out: GI
OVCAR-8 = assay: Growth inhibition of human OVCAR8 cells at 10 uM incubated for 48 hrs by sulforhodamine B assay relative to control; format: functional; details: OVCAR-8, 48 h, read-out: GI
SK-OV-3 = assay: Growth inhibition of human SKOV3 cells at 10 uM incubated for 48 hrs by sulforhodamine B assay relative to control; format: functional; details: SK-OV-3, 48 h, read-out: GI
SNB-75 = assay: Growth inhibition of human SNB75 cells at 10 uM incubated for 48 hrs by sulforhodamine B assay relative to control; format: functional; details: SNB-75, 48 h, read-out: GI
NCI-H522 = assay: Growth inhibition of human NCI-H522 cells at 10 uM incubated for 48 hrs by sulforhodamine B assay relative to control; format: functional; details: NCI-H522, 48 h, read-out: GI
CCRF-CEM = assay: Growth inhibition of human CCRF-CEM cells at 10 uM incubated for 48 hrs by sulforhodamine B assay relative to control; format: functional; details: read-out: GI
Hs-578T = assay: Growth inhibition of human Hs 578T cells at 10 uM incubated for 48 hrs by sulforhodamine B assay relative to control; format: functional; details: read-out: GI
MOLT-4 = assay: Growth inhibition of human MOLT4 cells at 10 uM incubated for 48 hrs by sulforhodamine B assay relative to control; format: functional; details: MOLT-4, 48 h, read-out: GI
NCI-H226 = assay: Growth inhibition of human NCI-H226 cells at 10 uM incubated for 48 hrs by sulforhodamine B assay relative to control; format: functional; details: NCI-H226, 48 h, read-out: GI
K562 = assay: Growth inhibition of human K562 cells at 10 uM incubated for 48 hrs by sulforhodamine B assay relative to control; format: functional; details: K562, 48 h, read-out: GI
NCI-H23 = assay: Growth inhibition of human NCI-H23 cells at 10 uM incubated for 48 hrs by sulforhodamine B assay relative to control; format: functional; details: NCI-H23, 48 h, read-out: GI
SK-MEL-5 = assay: Growth inhibition of human SK-MEL-5 cells at 10 uM incubated for 48 hrs by sulforhodamine B assay relative to control; format: functional; details: SK-MEL-5, 48 h, read-out: GI
NCI-H460 = assay: Antiproliferative activity against human H460 cells after 48 hrs by propidium iodide staining-based fluorometric analysis; format: functional, cell-based; details: NCI-H460, 48 h
HT-29 [3] = assay: Growth inhibition of human HT-29 cells at 10 uM incubated for 48 hrs by sulforhodamine B assay relative to control; format: functional; details: HT-29, 48 h, read-out: GI
SK-MEL-2 = assay: Growth inhibition of human SK-MEL-2 cells at 10 uM incubated for 48 hrs by sulforhodamine B assay relative to control; format: functional; details: SK-MEL-2, 48 h, read-out: GI
MIA PaCa-2 = assay: Antiproliferative activity against human MIAPaCa2 cells after 48 hrs by propidium iodide staining-based fluorometric analysis; format: functional, cell-based; details: MIA PaCa-2, 48 h
MDA-MB-435 = assay: Growth inhibition of human MDA-MB-435 cells at 10 uM incubated for 48 hrs by sulforhodamine B assay relative to control; format: functional; details: MDA-MB-435, 48 h, read-out: GI
KM12 = assay: Growth inhibition of human KM12 cells at 10 uM incubated for 48 hrs by sulforhodamine B assay relative to control; format: functional; details: KM12, 48 h, read-out: GI
MCF7 = assay: Growth inhibition of human MCF7 cells at 10 uM incubated for 48 hrs by sulforhodamine B assay relative to control; format: functional; details: MCF7, 48 h, read-out: GI
SK-MEL-28 = assay: Growth inhibition of human SK-MEL-28 cells at 10 uM incubated for 48 hrs by sulforhodamine B assay relative to control; format: functional; details: SK-MEL-28, 48 h, read-out: GI
A549 [4] = assay: Cell cycle arrest in human A549 cells assessed as accumulation at S phase at 0.4 uM after 24 hrs by propidium iodide staining based flow cytometry (reference value: 27.9%); format: functional
A549 [5] = assay: Induction of apoptosis in human A549 cells assessed as early apoptotic cells at 0.4 uM after 24 hrs by Annexin V/propidium iodide staining based flow cytometric analysis (reference value: 0.22%); format: functional
A549 [6] = assay: Induction of apoptosis in human A549 cells assessed as late apoptotic cells at 0.4 uM after 24 hrs by Annexin V/propidium iodide staining based flow cytometric analysis (reference value: 0.08%); format: functional
A549 [7] = assay: Induction of apoptosis in human A549 cells assessed as necrotic cells at 0.4 uM after 24 hrs by Annexin V/propidium iodide staining based flow cytometric analysis (reference value: 0.09%); format: functional
A549 [8] = assay: Induction of apoptosis in human A549 cells assessed as viable cells at 0.4 uM after 24 hrs by Annexin V/propidium iodide staining based flow cytometric analysis (reference value: 98.03%); format: functional; details: A549, 24 h, read-out: Activity
A549 [9] = assay: Cell cycle arrest in human A549 cells assessed as accumulation at G1 phase at 0.4 uM after 24 hrs by propidium iodide staining based flow cytometry (reference value: 67.52%); format: functional
A549 [10] = assay: Cell cycle arrest in human A549 cells assessed as accumulation at G2 phase at 0.4 uM after 24 hrs by propidium iodide staining based flow cytometry (reference value: 4.19%); format: functional
[11] = target: Epidermal growth factor receptor (Homo sapiens, UniProt P00533); assay: Inhibition of His6-tagged recombinant EGFR cytoplasmic domain (645 to 1186 residues) (unknown origin) expressed in baculovirus infected Sf9 insect cells preincubated for 10 mins followed by ATP-MgCl2 addition and measured after 1 hr by DELFIA/time-resolved fluorometric analysis
Sequence of Epidermal growth factor receptor (P00533 whole entry, the tested form may be a part): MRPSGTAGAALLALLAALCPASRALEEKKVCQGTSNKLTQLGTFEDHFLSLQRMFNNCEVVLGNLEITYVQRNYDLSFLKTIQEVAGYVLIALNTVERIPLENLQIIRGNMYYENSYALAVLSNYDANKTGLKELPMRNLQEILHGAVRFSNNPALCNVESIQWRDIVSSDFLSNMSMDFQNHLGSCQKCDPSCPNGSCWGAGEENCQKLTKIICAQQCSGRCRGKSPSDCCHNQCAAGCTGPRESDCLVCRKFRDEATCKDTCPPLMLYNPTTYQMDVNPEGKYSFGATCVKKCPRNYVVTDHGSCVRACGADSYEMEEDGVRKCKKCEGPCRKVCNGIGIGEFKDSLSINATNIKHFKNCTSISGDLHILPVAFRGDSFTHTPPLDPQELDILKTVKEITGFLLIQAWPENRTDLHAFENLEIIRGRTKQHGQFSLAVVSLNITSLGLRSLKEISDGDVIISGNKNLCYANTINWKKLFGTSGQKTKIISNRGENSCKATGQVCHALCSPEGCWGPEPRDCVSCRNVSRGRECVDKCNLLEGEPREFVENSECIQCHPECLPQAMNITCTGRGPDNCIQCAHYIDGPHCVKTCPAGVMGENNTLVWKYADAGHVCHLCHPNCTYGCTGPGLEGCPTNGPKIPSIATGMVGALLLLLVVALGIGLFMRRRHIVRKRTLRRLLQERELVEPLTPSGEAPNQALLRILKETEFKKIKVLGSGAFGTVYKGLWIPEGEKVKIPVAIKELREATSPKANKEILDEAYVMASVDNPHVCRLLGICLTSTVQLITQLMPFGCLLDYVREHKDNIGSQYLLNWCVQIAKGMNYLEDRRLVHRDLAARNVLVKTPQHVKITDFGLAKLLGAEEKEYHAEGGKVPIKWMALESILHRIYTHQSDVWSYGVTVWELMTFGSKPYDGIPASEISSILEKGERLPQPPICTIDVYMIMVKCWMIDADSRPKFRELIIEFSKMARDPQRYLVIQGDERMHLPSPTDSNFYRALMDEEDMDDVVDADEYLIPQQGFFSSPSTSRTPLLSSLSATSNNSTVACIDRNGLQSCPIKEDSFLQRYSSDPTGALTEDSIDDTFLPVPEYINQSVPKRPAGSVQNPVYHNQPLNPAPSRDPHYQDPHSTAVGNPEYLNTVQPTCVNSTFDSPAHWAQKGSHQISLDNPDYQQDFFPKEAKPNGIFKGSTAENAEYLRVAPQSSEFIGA

## CC(=O)O[C@@]12CO[C@@H]1C[C@H](O)[C@@]1(C)C(=O)[C@H](O)C3=C(C)[C@@H](OC(=O)[C@H](O)[C@@H](NC(=O)OC(C)(C)C)c4ccccc4)C[C@@](O)([C@@H](OC(=O)c4ccccc4)[C@H]21)C3(C)C
Tubulin (Homo sapiens)
  Activity: 4740 a.u.

## COc1cc(-c2nc(N)n(CC(=O)Nc3ccc(/C(C)=N\O)cc3)n2)cc(OC)c1OC
SF-268
  inhibition of growth at 10 µM: 6.49%
Malme-3M
  inhibition of growth at 10 µM: 3.25%
UACC-257
  inhibition of growth at 10 µM: 36.3%
SR
  inhibition of growth at 10 µM: 17%
PC-3
  inhibition of growth at 10 µM: 23.3%
TK-10
  inhibition of growth at 10 µM: 9.11%
HOP-92
  inhibition of growth at 10 µM: 11.8%
A549 [1]
  inhibition of growth at 10 µM: 25.8%
SF-539
  inhibition of growth at 10 µM: 2.92%
T47D
  inhibition of growth at 10 µM: 8.77%
SW-620
  inhibition of growth at 10 µM: 4.8%
U-251
  inhibition of growth at 10 µM: 14.2%
PANC-1
  IC50: 5.2 µM
RPMI-8226
  inhibition of growth at 10 µM: 5.69%
A498
  inhibition of growth at 10 µM: 11.2%
HT-29 [2]
  IC50: 7.9 µM
HOP-62
  inhibition of growth at 10 µM: 5.54%
UO-31
  inhibition of growth at 10 µM: 20.5%
HL-60(TB)
  inhibition of growth at 10 µM: 8.41%
NCI-H322M
  inhibition of growth at 10 µM: 5.82%
UACC-62
  inhibition of growth at 10 µM: 16.4%
SN12C
  inhibition of growth at 10 µM: 4%
OVCAR-8
  inhibition of growth at 10 µM: 25.7%
SK-OV-3
  inhibition of growth at 10 µM: 12.1%
SNB-75
  inhibition of growth at 10 µM: 25.9%
NCI-H522
  inhibition of growth at 10 µM: 29.2%
CCRF-CEM
  inhibition of growth at 10 µM: 15.5%
Hs-578T
  inhibition of growth at 10 µM: 17.9%
MOLT-4
  inhibition of growth at 10 µM: 8.41%
NCI-H226
  inhibition of growth at 10 µM: 5.19%
K562
  inhibition of growth at 10 µM: 3.93%
NCI-H23
  inhibition of growth at 10 µM: 4.21%
SK-MEL-5
  inhibition of growth at 10 µM: 2.08%
NCI-H460
  IC50: 7.9 µM
HT-29 [3]
  inhibition of growth at 10 µM: 13.6%
SK-MEL-2
  inhibition of growth at 10 µM: 8%
MIA PaCa-2
  IC50: 5.7 µM
MDA-MB-435
  inhibition of growth at 10 µM: 18%
KM12
  inhibition of growth at 10 µM: 2.75%
MCF7
  inhibition of growth at 10 µM: 10.8%
SK-MEL-28
  inhibition of growth at 10 µM: 5.76%

## COc1cc(-c2nc3sc(-c4ccc(Cl)cc4)cn3n2)cc(OC)c1OC
A549 [4]
  Activity: 12.69%
A549 [5]
  Activity: 5.38%
A549 [6]
  Activity: 7.65%
PANC-1
  IC50: 3.5 µM
HT-29 [2]
  IC50: 3.5 µM
A549 [7]
  Activity: 1.84%
A549 [8]
  viability at 0.4 µM: 83.5%
NCI-H460
  IC50: 3 µM
A549 [9]
  Activity: 49.52%
A549 [10]
  Activity: 22.92%
[11]
  IC50: 1.7 µM
MIA PaCa-2
  IC50: 3.9 µM
